Assay results reported in patent publication US7879876B2, “Sulfonamide derivatives and use thereof for the modulation of metalloproteinases” (Merck Serono SA, priority 2005, dated 2011).
pIC50: −log10 of the molar value.

Key:
Format in all cases: biochemical
[1] = biological target: T1, collagenase (MMP-1) (Homo sapiens, UniProt P03956); assay: MMP-1 enzyme inhibition assay (coumarin-labelled peptide substrate); conditions: @ 5 μM; read-out: percentage inhibition MMP1
T1 sequence (P03956 100-469): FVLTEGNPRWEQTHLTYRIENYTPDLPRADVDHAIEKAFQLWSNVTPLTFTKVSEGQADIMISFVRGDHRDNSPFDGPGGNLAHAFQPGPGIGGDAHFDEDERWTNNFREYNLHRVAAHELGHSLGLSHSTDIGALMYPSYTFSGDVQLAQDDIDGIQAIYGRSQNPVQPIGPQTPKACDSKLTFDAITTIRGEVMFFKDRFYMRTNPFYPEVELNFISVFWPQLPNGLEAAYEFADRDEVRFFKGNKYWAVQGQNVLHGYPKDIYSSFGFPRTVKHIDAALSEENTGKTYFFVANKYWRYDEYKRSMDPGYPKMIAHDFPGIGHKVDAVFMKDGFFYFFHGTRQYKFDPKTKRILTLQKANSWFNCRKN
Description: (§1) Compounds of the invention were tested to assess their activities as inhibitors of MMP-1, MMP-2, MMP-9, MMP-14, MMP-12 and TACE. MMP-9 Assay Protocol
(§2) Compounds of the invention were tested for inhibitory activity against 92 kDa gelatinase (MMP-9) in an assay using a coumarin-labeled peptide substrate, (7-methoxycoumarin-4-yl)acetyl-Pro-Leu-Gly-Leu-(3-[2,4-dinitrophenyl]-L-2,3diaminopropionyl)-Ala-Arg-NH2 (McaPLGLDpaAR) (Knight et al, FEBS Lett. 1992; 263-266).
(§3) Stock solutions were made up as follows: Assay Butter: 100 mM Tris-HCl pH 7.6 containing 100 mM NaCl, 10 mM CaCl2, and 0.05% Brij 35.
(§4) Substrate: 0.4 mM McaPLGLDpaAR (from Bachem) (0.437 mg/ml) stock solution in 100% DMSO (stored at −20° C.). Dilute to 8 μM in assay butter.
(§5) Enzyme: Recombinant human 92 kDa gelatinase (MMP-9; APMA (4-aminophenyl mercuric acetate)-activated if necessary) appropriately diluted in assay butter.
(§6) Test Compounds were prepared initially as 10 mM compound solution in 100% DMSO, diluted to 1 mM in 100% DMSO, then serially diluted 3-fold in 100% DMSO across columns 1-10 of a 96-well microtitre plate Assay concentration range, 100 μM (column 1) to 5.1 nM (column 10).
(§7) The assay was performed in a total volume of 100 μL per well in 96-well microtitre plates. Activated enzyme (20 μL) was added to the wells followed by 20 μL of assay butter. Appropriate concentrations of test compounds dissolved in 10 μL of DMSO were then added followed by 50 μL of McaPLGLDpaAR (8 μM, prepared by dilution of DMSO stock in assay butter). For each as say ten concentrations of test compound were examined in duplicate. Control wells lack either enzyme or test compound. The reactions were incubated at 37° C. for 2 hours. The fluorescence at 405 nm was measured immediately with an SLT Fluostar fluorometer (SL T Labinstruments GmbH, Grödig, Austria) using 320 nm excitation, without stopping the reaction.
(§8) The effect of the test compound was determined from the dose response curve generated by the 10 duplicate concentrations of inhibitor. The IC50 (the concentration of compound required to give a 50% decrease in enzyme activity) was obtained by fitting data to the equation, Y=a+((b−a)/(1+(c/X)^d)). (Y=inhibition achieved for a particular dose; X=the dose in nM; a=minimum y or zero % inhibition; b=maximum y or 100% inhibition; c=is the IC50; d=is the slope). The result was rounded to one significant figure.
(§9) Compounds of the invention were tested for inhibitory activity against collagenase (MMP-1) in an assay using a coumarin-labelled peptide substrate, (7-methoxycoumarin-4-yl)acetyl-Pro-Leu-Gly-Leu-(3-[2,4-dinitrophenyl]-L-2,3diaminopropionyl)-Ala-Arg-NH2 (Mca PLGLDpaAR) (Knight et al, 1992, above). The protocol for this assay was as described for the MMP-9 assay above.

[2] = biological target: T2, gelatinase A (MMP-2) (Homo sapiens, UniProt P08253); assay: MMP-2 enzyme inhibition assay (coumarin-labelled peptide substrate); conditions: read-out: IC50 MMP2
T2 sequence (P08253 110-660): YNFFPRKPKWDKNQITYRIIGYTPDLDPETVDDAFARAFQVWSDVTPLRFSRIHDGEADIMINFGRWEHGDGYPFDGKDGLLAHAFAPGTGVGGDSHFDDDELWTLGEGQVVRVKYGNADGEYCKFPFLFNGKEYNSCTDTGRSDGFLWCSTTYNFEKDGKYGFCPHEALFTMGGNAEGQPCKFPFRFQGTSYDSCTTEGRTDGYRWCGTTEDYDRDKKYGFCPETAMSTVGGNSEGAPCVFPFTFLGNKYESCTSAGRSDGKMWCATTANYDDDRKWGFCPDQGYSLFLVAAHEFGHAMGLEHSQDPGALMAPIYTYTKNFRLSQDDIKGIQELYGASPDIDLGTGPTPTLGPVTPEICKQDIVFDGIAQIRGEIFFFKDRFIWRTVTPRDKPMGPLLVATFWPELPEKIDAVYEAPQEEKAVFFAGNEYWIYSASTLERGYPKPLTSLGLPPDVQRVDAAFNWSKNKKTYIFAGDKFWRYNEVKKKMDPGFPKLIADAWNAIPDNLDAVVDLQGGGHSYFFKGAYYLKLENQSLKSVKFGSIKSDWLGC
Description: Compounds of the invention were tested to assess their activities as inhibitors of MMP-1, MMP-2, MMP-9, MMP-14, MMP-12 and TACE. MMP-9 Assay Protocol […]
as §3
Substrate: 0.4 mM McaPLGLDpaAR (from Bachem) (0.437 mg/ml) stock solution in 100% DMSO (stored at −20° C.). Dilute to 8 μM in assay butter. […]
as §6, §7, §8
as §9, with “gelatinase A (MMP-2)” for “collagenase (MMP-1)”

[3] = biological target: 92 kDa gelatinase (MMP-9) (Homo sapiens, UniProt P14780); assay: MMP-9 enzyme inhibition assay (coumarin-labeled peptide substrate); conditions: read-out: IC50 MMP9
92 kDa gelatinase (MMP-9), sequence (P14780 107-707 limits assumed): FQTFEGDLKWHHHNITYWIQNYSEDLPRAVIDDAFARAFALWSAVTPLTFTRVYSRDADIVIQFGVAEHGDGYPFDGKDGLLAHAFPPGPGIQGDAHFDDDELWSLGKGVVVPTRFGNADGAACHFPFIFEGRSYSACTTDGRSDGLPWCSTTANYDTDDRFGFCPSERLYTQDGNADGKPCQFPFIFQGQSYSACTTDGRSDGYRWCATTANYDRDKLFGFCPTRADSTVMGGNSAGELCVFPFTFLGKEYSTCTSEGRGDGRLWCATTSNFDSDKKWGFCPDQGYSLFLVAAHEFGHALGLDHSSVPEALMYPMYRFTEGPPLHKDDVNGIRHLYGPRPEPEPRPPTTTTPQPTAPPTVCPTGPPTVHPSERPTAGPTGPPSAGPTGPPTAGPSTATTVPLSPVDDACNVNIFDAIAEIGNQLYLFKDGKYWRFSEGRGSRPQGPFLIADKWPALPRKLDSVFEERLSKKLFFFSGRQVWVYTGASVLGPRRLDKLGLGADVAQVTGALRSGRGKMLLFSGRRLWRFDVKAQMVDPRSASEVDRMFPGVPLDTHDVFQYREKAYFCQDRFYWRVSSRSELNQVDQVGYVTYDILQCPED
Description: as §1, §2, §3, §4, §5, §6, §7, §8

[4] = biological target: metalloelastase (MMP-12) (Homo sapiens, UniProt P39900); assay: MMP-12 enzyme inhibition assay (coumarin-labelled peptide substrate); conditions: read-out: IC50 MMP12
metalloelastase (MMP-12), sequence (P39900 106-470): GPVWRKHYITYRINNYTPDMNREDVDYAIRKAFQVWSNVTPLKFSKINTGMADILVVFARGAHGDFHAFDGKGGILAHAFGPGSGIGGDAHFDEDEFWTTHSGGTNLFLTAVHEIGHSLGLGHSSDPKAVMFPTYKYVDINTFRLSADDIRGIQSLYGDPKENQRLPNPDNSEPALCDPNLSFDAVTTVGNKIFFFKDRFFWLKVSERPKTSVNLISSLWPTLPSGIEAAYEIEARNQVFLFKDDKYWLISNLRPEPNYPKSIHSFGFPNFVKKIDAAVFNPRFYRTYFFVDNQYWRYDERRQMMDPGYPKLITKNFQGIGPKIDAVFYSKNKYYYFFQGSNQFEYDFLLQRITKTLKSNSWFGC
Description: as §1, §2, §3, §4, §5, §6, §7, §8
Compounds of the invention were tested for inhibitory activity against metalloelastase (MMP-12) in an assay using a coumarin-labelled peptide substrate, (7-methoxycoumarin-4-yl)acetyl-Pro-Leu-Gly-Leu-(3-[2,4-dinitrophenyl]-L-2,3-diaminopropionyl)-Ala-Arg-NH2 (McaPLGLDpaAR) (Knight et al, 1992, above). The protocol for this assay was as described for the MMP-9 assay above.

[5] = biological target: MMP13 (Homo sapiens, UniProt P45452); assay: MMP13 inhibition (Table 1); conditions: @ 5 μM; read-out: percentage inhibition MMP13
[6] = biological target: MMP-14 (Homo sapiens, UniProt P50281); assay: MMP-14 enzyme inhibition assay (coumarin-labelled peptide substrate); conditions: @ 5 μM; read-out: percentage inhibition MMP14
Description: as §1, §2, §3, §4, §5, §6, §7, §8
as §9, with “MMP-14” for “collagenase (MMP-1)”, “PLGLD paAR)” for “PLGLDpaAR)”

inhibition at 5 µM [1]: 5% | pIC50 [2]: < 5.30 | pIC50 [3]: < 5.30 | pIC50 [4]: 6.20 | inhibition at 5 µM [5]: 41% | inhibition at 5 µM [6]: 8%
Structure (SMILES): CC(C)(C(CS(=O)(=O)N1CCc2ccccc2C1)N(O)C=O)N1CCOCC1 (stereo not drawn) [Example 8, N-{1-[(3,4-dihydroisoquinolin-2(1H)-ylsulfonyl)methyl]-2-methyl-2-morpholin-4-ylpropyl}-N-hydroxyformamide]
